Results from US20140163023A1, “DIHYDROPYRROLO PYRIMIDINE DERIVATIVES AS MTOR INHIBITORS” (Cellzome Limited, priority 2011, published 2014).

What was measured:
PI3Kα = molecular target: T1, PI3Kα (Homo sapiens, UniProt P42336); assay: kinobeads assay, PI3Kα; type: binding; settings: 1:1 mix of Jurkat and Ramos cell lysates, read-out: Inhibition values (IC50 in μM) as determined in the kinobeads assay, PI3Kα
T1 construct: endogenous in cells; host or cells: Jurkat (ATCC TIB-152, clone E6-1) and Ramos (ATCC CRL-1596), 1:1 lysate mix
Experimental: (§1) The compounds of the present invention as described were tested in the mTOR kinobeads assay as described below. Briefly, test compounds (at various concentrations) and the affinity matrix (1:1 mixture of beads with immobilized phenylthiazole ligand 1 and beads with immobilized phenylmorpholin-chromen ligand; WO 2009/098021) were added to cell lysate aliquots and allowed to bind to the proteins in the lysate sample. After the incubation time the beads with captured proteins were separated from the lysate. Bound proteins were then eluted and the presence of mTOR, PI3Kα, PI3Kβ, PI3Kγ, PI3Kδ and DNA-dependent protein kinase (DNA-PK) was detected and quantified using a specific antibody in a dot blot procedure and the Odyssey infrared detection system. Dose response curves for individual kinases were generated and IC50 values calculated. Kinobeads assays for PI3 kinases (WO-A 2008/015013) and for kinase selectivity profiling (WO 2009/098021) have been previously described.
(§2) Washing of Affinity Matrix
(§3) The affinity matrix was washed two times with 15 ml of 1×DP buffer containing 0.2% NP40 (IGEPAL® CA-630, Sigma, #13021) and then resupended in 5.5 ml of 1×DP buffer containing 0.2% NP40 (10% beads slurry).
(§4) 5×DP buffer: 250 mM Tris-HCl pH 7.4, 25% Glycerol, 7.5 mM MgCl2, 750 mM NaCl, 5 mM Na3VO4, filter the 5×-lysis buffer through 0.22 μm filter and store in aliquots at −80° C. The 5×DP buffer is diluted to 1×DP buffer containing 1 mM DTT and 25 mM NaF.
(§5) Preparation of Test Compounds
(§6) Stock solutions of test compounds were prepared in DMSO. In a 96 well plate 30 μl solution of diluted test compounds at 5 mM in DMSO were prepared. Starting with this solution a 1:3 dilution series (9 steps) was prepared. For control experiments (no test compound) a buffer containing 2% DMSO was used. Compound Pi-103 (Calbiochem catalogue number 528100) served as a positive control.
(§7) Cell Culture and Preparation of Cell Lysates
(§8) Jurkat cells (ATCC catalogue number TIB-152 Jurkat, clone E6-1) and Ramos cells (ATCC number CRL-1596) were grown in 1 litre Spinner flasks (Integra Biosciences, #182101) in suspension in RPMI 1640 medium (Invitrogen, #21875-034) supplemented with 10% Fetal Bovine Serum (Invitrogen) at a density between 0.15×10^6 and 1.2×10^6 cells/ml. Cells were harvested by centrifugation, washed once with 1×PBS buffer (Invitrogen, #14190-094) and cell pellets were frozen in liquid nitrogen and subsequently stored at −80° C.
(§9) Cells were homogenized in a Potter S homogenizer in lysis buffer: 50 mM Tris-HCl, 0.8% NP40, 5% glycerol, 150 mM NaCl, 1.5 mM MgCl2, 25 mM NaF, 1 mM sodium vanadate, 1 mM DTT, pH 7.5. One complete EDTA-free tablet (protease inhibitor cocktail, Roche Diagnostics, 1873580) per 25 ml buffer was added. The material was dounced 10 times using a mechanized POTTER S, transferred to 50 ml falcon tubes, incubated for 30 minutes on ice and spun down for 10 min at 20,000 g at 4° C. (10,000 rpm in Sorvall SLA600, precooled). The supernatant was transferred to an ultracentrifuge (UZ)-polycarbonate tube (Beckmann, 355654) and spun for 1 hour at 100.000 g at 4° C. (33.500 rpm in Ti50.2, precooled). The supernatant was transferred again to a fresh 50 ml falcon tube, the protein concentration was determined by a Bradford assay (BioRad) and samples containing 50 mg of protein per aliquot were prepared. The samples were immediately used for experiments or frozen in liquid nitrogen and stored frozen at −80° C.
(§10) Cell lysate (approximately 50 mg protein per plate) was thawed in a water bath at room temperature and then kept on ice. To the thawed cell lysate 1×DP 0.8% NP40 buffer containing protease inhibitors (1 tablet for 25 ml buffer; EDTA-free protease inhibitor cocktail; Roche Diagnostics 1873580) was added in order to reach a final protein concentration of 5 mg/ml total protein. For the kinobeads experiment a 1:1 mix of Jurkat and Ramos cell lysates was used. The diluted cell lysate was stored on ice. […]

[1] = molecular target: T2, DNA-dependent protein kinase (DNA-PK) (Homo sapiens, UniProt P78527); assay: kinobeads assay, DNA-PK; type: binding; settings: 1:1 mix of Jurkat and Ramos cell lysates, read-out: Inhibition values (IC50 in μM) as determined in the kinobeads assay, DNA-PK
T2 construct: endogenous in cells; host or cells: Jurkat (ATCC TIB-152, clone E6-1) and Ramos (ATCC CRL-1596), 1:1 lysate mix
Experimental: as §1, §2, §3, §4, §5, §6, §7, §8, §9, §10

mTOR = molecular target: T3, mTOR (Homo sapiens, UniProt P42345); assay: mTOR kinobeads assay (competition binding in cell lysate, dot blot detection); settings: 1:1 mix of Jurkat and Ramos cell lysates, read-out: Inhibition values (IC50 in μM) as determined in the kinobeads assay, mTor
T3 construct: endogenous in cells; host or cells: Jurkat (ATCC TIB-152, clone E6-1) and Ramos (ATCC CRL-1596), 1:1 lysate mix
Experimental: Determination of the Effect of the Compounds According to the Invention on mTOR
as §1, §2, §3, §4, §5, §6, §7, §8, §9
as §10, with “used.” for “used. The diluted cell lysate was stored on ice.”

PI3Kγ = molecular target: T4, PI3Kγ (Homo sapiens, UniProt P48736); assay: kinobeads assay, PI3Kγ; type: binding; settings: 1:1 mix of Jurkat and Ramos cell lysates, read-out: Inhibition values (IC50 in μM) as determined in the kinobeads assay, PI3Kγ
T4 construct: endogenous in cells; host or cells: Jurkat (ATCC TIB-152, clone E6-1) and Ramos (ATCC CRL-1596), 1:1 lysate mix
Experimental: as §1, §2, §3, §4, §5, §6, §7, §8, §9, §10

PI3Kβ = molecular target: T5, PI3Kβ (Homo sapiens, UniProt P42338); assay: kinobeads assay, PI3Kβ; type: binding; settings: 1:1 mix of Jurkat and Ramos cell lysates, read-out: Inhibition values (IC50 in μM) as determined in the kinobeads assay, PI3Kβ
T5 construct: endogenous in cells; host or cells: Jurkat (ATCC TIB-152, clone E6-1) and Ramos (ATCC CRL-1596), 1:1 lysate mix
Experimental: as §1, §2, §3, §4, §5, §6, §7, §8, §9, §10

PI3Kδ = molecular target: T6, PI3Kδ (Homo sapiens, UniProt O00329); assay: kinobeads assay, PI3Kδ; type: binding; settings: 1:1 mix of Jurkat and Ramos cell lysates, read-out: Inhibition values (IC50 in μM) as determined in the kinobeads assay, PI3Kδ
T6 construct: endogenous in cells; host or cells: Jurkat (ATCC TIB-152, clone E6-1) and Ramos (ATCC CRL-1596), 1:1 lysate mix
Experimental: as §1, §2, §3, §4, §5, §6, §7, §8, §9, §10

T5 sequence (P42338 whole entry): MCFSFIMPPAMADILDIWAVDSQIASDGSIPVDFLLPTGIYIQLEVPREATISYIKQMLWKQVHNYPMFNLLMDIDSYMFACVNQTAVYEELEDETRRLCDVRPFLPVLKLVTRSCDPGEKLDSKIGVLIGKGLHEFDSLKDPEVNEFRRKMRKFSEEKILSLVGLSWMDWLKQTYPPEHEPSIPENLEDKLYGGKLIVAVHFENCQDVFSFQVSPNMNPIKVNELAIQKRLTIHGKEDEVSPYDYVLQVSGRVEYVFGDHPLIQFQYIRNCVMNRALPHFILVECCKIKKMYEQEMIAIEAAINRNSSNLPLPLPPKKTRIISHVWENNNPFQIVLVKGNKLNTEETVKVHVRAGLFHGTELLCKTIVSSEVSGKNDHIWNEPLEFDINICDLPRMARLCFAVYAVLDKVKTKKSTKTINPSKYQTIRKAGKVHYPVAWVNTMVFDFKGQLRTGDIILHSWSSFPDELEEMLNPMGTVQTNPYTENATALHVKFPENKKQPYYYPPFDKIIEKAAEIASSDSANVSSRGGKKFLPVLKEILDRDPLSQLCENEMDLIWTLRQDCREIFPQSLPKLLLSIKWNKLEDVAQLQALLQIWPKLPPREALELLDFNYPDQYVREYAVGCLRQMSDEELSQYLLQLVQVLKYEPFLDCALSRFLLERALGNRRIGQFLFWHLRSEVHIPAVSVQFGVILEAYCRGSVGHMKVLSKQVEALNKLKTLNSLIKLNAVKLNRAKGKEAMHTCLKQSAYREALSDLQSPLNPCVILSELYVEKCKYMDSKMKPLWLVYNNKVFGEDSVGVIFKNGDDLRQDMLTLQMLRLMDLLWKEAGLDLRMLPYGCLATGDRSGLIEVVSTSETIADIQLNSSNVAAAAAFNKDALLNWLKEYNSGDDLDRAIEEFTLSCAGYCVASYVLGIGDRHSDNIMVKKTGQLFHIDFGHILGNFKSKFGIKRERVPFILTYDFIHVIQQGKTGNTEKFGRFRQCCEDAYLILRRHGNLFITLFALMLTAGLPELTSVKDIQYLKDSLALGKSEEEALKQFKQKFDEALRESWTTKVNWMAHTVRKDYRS
T5 sequence (P27986 whole entry partner): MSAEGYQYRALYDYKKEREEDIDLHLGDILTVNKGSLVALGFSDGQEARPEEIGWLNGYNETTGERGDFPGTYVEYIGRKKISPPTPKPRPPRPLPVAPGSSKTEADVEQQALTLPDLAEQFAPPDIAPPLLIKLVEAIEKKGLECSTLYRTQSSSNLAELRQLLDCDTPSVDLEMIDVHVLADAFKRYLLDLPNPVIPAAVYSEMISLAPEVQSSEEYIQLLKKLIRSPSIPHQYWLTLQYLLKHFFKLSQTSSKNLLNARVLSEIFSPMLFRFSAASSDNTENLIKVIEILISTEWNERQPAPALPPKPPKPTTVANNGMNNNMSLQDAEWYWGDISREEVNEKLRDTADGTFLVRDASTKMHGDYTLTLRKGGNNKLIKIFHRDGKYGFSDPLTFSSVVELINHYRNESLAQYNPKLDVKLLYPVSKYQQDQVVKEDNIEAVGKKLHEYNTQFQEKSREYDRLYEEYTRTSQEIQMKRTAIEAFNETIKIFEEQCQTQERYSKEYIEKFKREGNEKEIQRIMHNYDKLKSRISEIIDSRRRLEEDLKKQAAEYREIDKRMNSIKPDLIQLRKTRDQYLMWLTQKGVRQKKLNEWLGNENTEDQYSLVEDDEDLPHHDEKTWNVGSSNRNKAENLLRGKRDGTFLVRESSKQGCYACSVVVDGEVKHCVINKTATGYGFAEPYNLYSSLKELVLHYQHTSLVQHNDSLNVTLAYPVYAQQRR
T4 sequence (P48736 whole entry): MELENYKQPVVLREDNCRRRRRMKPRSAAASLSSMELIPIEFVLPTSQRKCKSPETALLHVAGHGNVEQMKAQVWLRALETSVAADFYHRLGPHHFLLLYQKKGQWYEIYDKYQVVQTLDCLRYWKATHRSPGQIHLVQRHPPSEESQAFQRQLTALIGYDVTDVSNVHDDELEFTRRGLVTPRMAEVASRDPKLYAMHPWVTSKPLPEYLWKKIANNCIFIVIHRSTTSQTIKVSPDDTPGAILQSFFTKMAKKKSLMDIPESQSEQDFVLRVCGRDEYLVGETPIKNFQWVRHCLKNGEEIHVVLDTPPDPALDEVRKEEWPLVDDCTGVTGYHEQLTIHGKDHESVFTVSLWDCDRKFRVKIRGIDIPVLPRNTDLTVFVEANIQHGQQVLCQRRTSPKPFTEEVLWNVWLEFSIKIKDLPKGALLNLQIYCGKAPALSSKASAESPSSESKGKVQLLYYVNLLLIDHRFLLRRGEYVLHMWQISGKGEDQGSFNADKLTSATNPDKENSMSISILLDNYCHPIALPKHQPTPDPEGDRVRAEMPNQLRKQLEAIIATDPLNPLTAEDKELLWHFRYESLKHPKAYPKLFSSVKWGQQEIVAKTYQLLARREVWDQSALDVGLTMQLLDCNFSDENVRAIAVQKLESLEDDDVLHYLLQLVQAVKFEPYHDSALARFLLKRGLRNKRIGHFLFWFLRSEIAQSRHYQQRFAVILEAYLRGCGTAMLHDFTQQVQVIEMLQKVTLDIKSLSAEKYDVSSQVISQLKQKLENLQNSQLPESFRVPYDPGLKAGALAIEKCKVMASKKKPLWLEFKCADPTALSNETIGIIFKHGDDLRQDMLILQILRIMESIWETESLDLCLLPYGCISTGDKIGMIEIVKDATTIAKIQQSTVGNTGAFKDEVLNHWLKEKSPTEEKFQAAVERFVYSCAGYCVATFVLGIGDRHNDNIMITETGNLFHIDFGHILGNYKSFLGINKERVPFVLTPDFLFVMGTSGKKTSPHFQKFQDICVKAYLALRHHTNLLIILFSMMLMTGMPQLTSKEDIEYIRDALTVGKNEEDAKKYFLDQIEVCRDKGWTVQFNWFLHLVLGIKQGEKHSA
T1 sequence (P42336 whole entry): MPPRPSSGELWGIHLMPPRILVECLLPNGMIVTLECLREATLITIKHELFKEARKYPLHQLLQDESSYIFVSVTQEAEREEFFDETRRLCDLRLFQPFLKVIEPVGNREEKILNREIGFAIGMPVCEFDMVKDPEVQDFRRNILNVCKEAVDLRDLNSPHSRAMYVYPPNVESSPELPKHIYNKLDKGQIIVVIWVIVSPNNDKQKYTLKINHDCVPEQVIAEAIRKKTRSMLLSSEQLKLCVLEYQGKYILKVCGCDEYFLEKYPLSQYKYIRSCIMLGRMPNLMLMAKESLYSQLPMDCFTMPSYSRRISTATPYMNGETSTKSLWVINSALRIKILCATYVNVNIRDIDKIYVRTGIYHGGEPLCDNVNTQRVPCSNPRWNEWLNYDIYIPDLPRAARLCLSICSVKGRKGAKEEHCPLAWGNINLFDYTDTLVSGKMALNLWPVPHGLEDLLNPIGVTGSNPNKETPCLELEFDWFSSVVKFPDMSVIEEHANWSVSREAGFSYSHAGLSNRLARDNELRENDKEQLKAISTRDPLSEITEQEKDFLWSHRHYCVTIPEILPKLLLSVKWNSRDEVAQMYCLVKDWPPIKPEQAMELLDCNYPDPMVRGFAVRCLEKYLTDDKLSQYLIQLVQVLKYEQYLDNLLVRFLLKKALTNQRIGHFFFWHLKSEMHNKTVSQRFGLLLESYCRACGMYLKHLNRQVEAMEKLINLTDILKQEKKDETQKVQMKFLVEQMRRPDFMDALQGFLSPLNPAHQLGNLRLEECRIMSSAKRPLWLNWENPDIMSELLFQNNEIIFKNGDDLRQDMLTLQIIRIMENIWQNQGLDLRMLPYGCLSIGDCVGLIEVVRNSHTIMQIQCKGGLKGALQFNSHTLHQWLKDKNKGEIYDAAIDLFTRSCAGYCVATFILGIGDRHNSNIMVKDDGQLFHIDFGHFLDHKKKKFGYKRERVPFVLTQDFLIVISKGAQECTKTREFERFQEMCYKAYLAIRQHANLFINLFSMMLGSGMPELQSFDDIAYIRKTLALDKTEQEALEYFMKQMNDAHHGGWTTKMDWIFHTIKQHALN
T1 sequence (P27986 whole entry partner): as the sequence (P27986 whole entry partner) above
T6 sequence (O00329 whole entry): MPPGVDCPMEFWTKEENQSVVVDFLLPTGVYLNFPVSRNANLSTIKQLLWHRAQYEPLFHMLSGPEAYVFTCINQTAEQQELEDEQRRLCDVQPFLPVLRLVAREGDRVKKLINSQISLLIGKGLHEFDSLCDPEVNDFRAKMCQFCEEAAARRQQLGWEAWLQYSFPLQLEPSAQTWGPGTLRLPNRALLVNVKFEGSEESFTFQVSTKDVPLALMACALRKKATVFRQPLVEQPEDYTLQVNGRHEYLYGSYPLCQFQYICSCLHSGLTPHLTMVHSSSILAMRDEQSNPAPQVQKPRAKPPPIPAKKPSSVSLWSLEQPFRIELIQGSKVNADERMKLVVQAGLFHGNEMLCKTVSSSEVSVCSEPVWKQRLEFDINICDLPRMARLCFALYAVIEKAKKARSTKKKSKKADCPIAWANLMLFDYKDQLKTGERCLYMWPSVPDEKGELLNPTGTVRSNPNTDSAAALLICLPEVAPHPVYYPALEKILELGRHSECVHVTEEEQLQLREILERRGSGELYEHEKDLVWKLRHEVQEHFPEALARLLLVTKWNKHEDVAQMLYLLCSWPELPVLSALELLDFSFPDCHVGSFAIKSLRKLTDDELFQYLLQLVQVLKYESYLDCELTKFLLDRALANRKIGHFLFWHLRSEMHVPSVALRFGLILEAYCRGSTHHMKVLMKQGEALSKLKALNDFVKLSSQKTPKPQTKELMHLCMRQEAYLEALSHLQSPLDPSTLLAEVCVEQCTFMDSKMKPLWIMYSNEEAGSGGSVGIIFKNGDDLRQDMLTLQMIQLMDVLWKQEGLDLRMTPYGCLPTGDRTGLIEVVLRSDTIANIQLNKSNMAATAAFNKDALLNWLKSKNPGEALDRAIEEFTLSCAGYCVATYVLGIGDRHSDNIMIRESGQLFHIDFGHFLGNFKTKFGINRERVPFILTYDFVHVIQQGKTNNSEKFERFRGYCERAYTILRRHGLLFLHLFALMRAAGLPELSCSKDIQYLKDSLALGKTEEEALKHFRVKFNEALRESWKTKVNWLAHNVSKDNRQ
T6 sequence (P27986 whole entry partner): as the sequence (P27986 whole entry partner) above

| IC50 (PI3Kα) | IC50 [1] | IC50 (mTOR) | IC50 (PI3Kγ) | IC50 (PI3Kβ) | IC50 (PI3Kδ) | Compound |
| --- | --- | --- | --- | --- | --- | --- |
| > 100 µM | > 100 µM | 0.1 to 1 µM | > 100 µM | > 100 µM | > 100 µM | C[C@H]1COCCN1c1nc2c(c(-c3ccc(NC(=O)NC4CC4)cc3)n1)CN(S(C)(=O)=O)C2 [Example 15, (S)-1-cyclopropyl-3-(4-(2-(3-methylmorpholino)-6-(methylsulfonyl)-6,7-dihydro-5H-pyrrolo[3,4-d]pyrimidin-4-yl)phenyl)urea] |
| > 100 µM | > 100 µM | 1 to 10 µM | > 100 µM | > 100 µM | > 100 µM | C[C@H]1COCCN1C(=O)Nc1ccc(-c2nc(N3CCOC[C@@H]3C)nc3c2CNC3)cc1 [Example 16, (S)-3-methyl-N-(4-(2-((S)-3-methylmorpholino)-6,7-dihydro-5H-pyrrolo[3,4-d]pyrimidin-4-yl)phenyl)morpholine-4-carboxamide] |
| 10 to 100 µM | > 100 µM | 1 to 10 µM | > 100 µM | > 100 µM | > 100 µM | CCNC(=O)N1Cc2nc(N3CCOC[C@@H]3C)nc(-c3ccc(NC(=O)NC4CC4)cc3)c2C1 [Example 17, (S)-4-(4-(3-cyclopropylureido)phenyl)-N-ethyl-2-(3-methylmorpholino)-5H-pyrrolo[3,4-d]pyrimidine-6(7H)-carboxamide] |
| > 100 µM | 10 to 100 µM | 0.1 to 1 µM | > 100 µM | > 100 µM | > 100 µM | O=C(Nc1ccc(-c2nc(N3CC4CCC(C3)O4)nc3c2CNC3)cc1)NC1CC1 [Example 18, 1-(4-(2-(8-oxa-3-azabicyclo[3.2.1]octan-3-yl)-6,7-dihydro-5H-pyrrolo[3,4-d]pyrimidin-4-yl)phenyl)-3-cyclopropylurea] |
| 1 to 10 µM | 10 to 100 µM | ≤ 0.1 µM | 1 to 10 µM | 10 to 100 µM | 10 to 100 µM | C[C@H]1COCCN1c1nc2c(c(-c3ccc(NC(=O)NCCO)cc3)n1)CNC2 [Example 19, (S)-1-(2-hydroxyethyl)-3-(4-(2-(3-methylmorpholino)-6,7-dihydro-5H-pyrrolo[3,4-d]pyrimidin-4-yl)phenyl)urea] |
| > 100 µM | > 100 µM | 1 to 10 µM | > 100 µM | 10 to 100 µM | 10 to 100 µM | C[C@H]1COCCN1c1nc2c(c(-c3ccc(NC(=O)NC4CC4)cc3)n1)CN(C(=O)CN(C)C)C2 [Example 20, (S)-1-cyclopropyl-3-(4-(6-(2-(dimethylamino)acetyl)-2-(3-methylmorpholino)-6,7-dihydro-5H-pyrrolo[3,4-d]pyrimidin-4-yl)phenyl)urea] |
| > 100 µM | > 100 µM | 1 to 10 µM | > 100 µM | 10 to 100 µM | 10 to 100 µM | C[C@H]1COCCN1c1nc2c(c(-c3ccc(NC(=O)NC4CC4)cc3)n1)CN(C(=O)CCN(C)C)C2 [Example 21, (S)-1-cyclopropyl-3-(4-(6-(3-(dimethylamino)propanoyl)-2-(3-methylmorpholino)-6,7-dihydro-5H-pyrrolo[3,4-d]pyrimidin-4-yl)phenyl)urea] |
| 10 to 100 µM | > 100 µM | 0.1 to 1 µM | 10 to 100 µM | 10 to 100 µM | 1 to 10 µM | C[C@H]1COCCN1c1nc2c(c(-c3ccc(NC(=O)NC4CC4)cc3)n1)CN(C(=O)CO)C2 [Example 22, (S)-1-cyclopropyl-3-(4-(6-(2-hydroxyacetyl)-2-(3-methylmorpholino)-6,7-dihydro-5H-pyrrolo[3,4-d]pyrimidin-4-yl)phenyl)urea] |
| 10 to 100 µM | > 100 µM | 0.1 to 1 µM | > 100 µM | 10 to 100 µM | 10 to 100 µM | C[C@H]1COCCN1c1nc2c(c(-c3ccc(NC(=O)NC4CC4)cc3)n1)CN(C(=O)CC#N)C2 [Example 23, (S)-1-(4-(6-(2-cyanoacetyl)-2-(3-methylmorpholino)-6,7-dihydro-5H-pyrrolo[3,4-d]pyrimidin-4-yl)phenyl)-3-cyclopropylurea] |
| 10 to 100 µM | > 100 µM | 1 to 10 µM | 10 to 100 µM | 10 to 100 µM | 10 to 100 µM | C[C@H]1COCCN1c1nc2c(c(-c3ccc(NC(=O)Nc4ccncc4)cc3)n1)CNC2 [Example 24, (S)-1-(4-(2-(3-methylmorpholino)-6,7-dihydro-5H-pyrrolo[3,4-d]pyrimidin-4-yl)phenyl)-3-(pyridin-4-yl)urea] |
| 1 to 10 µM | > 100 µM | 0.1 to 1 µM | 1 to 10 µM | 1 to 10 µM | 10 to 100 µM | C[C@H]1COCCN1c1nc2c(c(-c3ccc(NC(=O)Nc4cccc(O)n4)cc3)n1)CNC2 [Example 25, (S)-1-(6-hydroxypyridin-2-yl)-3-(4-(2-(3-methylmorpholino)-6,7-dihydro-5H-pyrrolo[3,4-d]pyrimidin-4-yl)phenyl)urea] |
| > 100 µM | > 100 µM | 0.1 to 1 µM | > 100 µM | 10 to 100 µM | 10 to 100 µM | C[C@@H]1COCCN1c1nc2c(c(-c3ccc(NC(=O)NC4CC4)cc3)n1)CNC2 [Example 26, (R)-1-cyclopropyl-3-(4-(2-(3-methylmorpholino)-6,7-dihydro-5H-pyrrolo[3,4-d]pyrimidin-4-yl)phenyl)urea] |
| 10 to 100 µM | > 100 µM | 1 to 10 µM | > 100 µM | 10 to 100 µM | 10 to 100 µM | COCC(=O)N1Cc2nc(N3CCOC[C@@H]3C)nc(-c3ccc(NC(=O)NC4CC4)cc3)c2C1 [Example 27, (S)-1-cyclopropyl-3-(4-(6-(2-methoxyacetyl)-2-(3-methylmorpholino)-6,7-dihydro-5H-pyrrolo[3,4-d]pyrimidin-4-yl)phenyl)urea] |
